Data set [1] in a line: MTT cell viability assay, HUVEC. In kind it is cell-based, human. To be noted: human, primary HUVECs (umbilical vein endothelial cells); HUVEC, MTT, 24 h. The procedure: (§1) Human keratinocyte (HaCaT) cells were cultured in DMEM supplemented with 10% (v/v) FBS. Primary human umbilical vein endothelial cells (HUVECs) were cultured in EGM™-2 Bulletkit (Lonza) medium. HaCaT and HUVECs were harvested using TrypLE^TM Express (Gibco). Cells were seeded in microtitre plates at 3 × 10^5 cells/mL and incubated for 24 h at 37 °C with an antimicrobial compound ([…]) or Triton X100 at 1% (v/v). After removing the medium, cells were incubated with 500 mg/L MTT (Sigma-Aldrich) for 4 h. The crystals formed were solubilized with DMSO. Absorbance was recorded at 560 nm and the CC50 was determined.
For orientation: Tetrazolium assays rely on reduction of a dye to a coloured formazan, in cell work by metabolically active cells.

Data set [2] deals with Primary human umbilical vein endothelial cells (HUVECs). In words: MTT cell viability assay, HUVEC. In kind it is cell-based. To be noted: HUVECs. The procedure: as §1
Data set [3] has as its system S. aureus strain BH48. In words: MIC by broth microdilution (CLSI), strain BH48. In kind it is cell-based. The following applies: Staphylococcus aureus; BH48 (MSSA), Mueller–Hinton broth. Here is the method: Community-acquired MRSA (CA-MRSA) strain USA300, its isogenic agr mutant,[17] the hospital-acquired MRSA (HA-MRSA) strain BH1CC,[18] the HA-MSSA strain BH48[19] and the MSSA strain SH1000[20] were cultured in Mueller–Hinton broth for susceptibility testing or in RPMI-1640 (Gibco) for biofilm formation. For the rat jugular vein catheter infection model, the S. aureus strain USA300 (LAC) lux[21] was used.
5HE-C14-TMA and C14-TOA were synthesized as described previously[9] and C14-TTA as described in the Supplementary data available at JAC Online. Stock solutions of the compounds in DMSO at 10–50 mM were further diluted into tissue culture media or sodium chloride for the in vivo experiments. A DMSO solvent control was used in all in vitro experiments. The following antibiotics were used: vancomycin (Vancocin; Flynn Pharma Ltd., Republic of Ireland), daptomycin (Cubicin; Novartis, UK), gentamicin (Hospira, UK) and tigecycline (Tygacil; Pfizer Inc.). MICs were determined by broth microdilution in Mueller–Hinton broth, as recommended by the CLSI.
For orientation: In broth dilution the organism is exposed to a series of concentrations in liquid medium.

Data set [4] deals with staphylococcal membrane. Also on record: method as in PMID 24592914. To be noted: binding to the staphylococcal membrane, single site model; cited from earlier work.
For data set [5], the system named is agr quorum sensing system. Also on record: method as in PMID 24592914. To be noted: S. aureus; cited from earlier work.
In data set [6] the test system is S. aureus. The following applies: cited from earlier work.
Data set [7] has as its system S. aureus biofilms. In words: Biofilm susceptibility, resazurin-conversion assay on plasma-coated wells. The data set is classed as cell-based, Staphylococcus aureus. The procedure:
Biofilms were formed as previously described to mimic in vivo conditions that promote formation of coagulase-mediated biofilms.[16] Briefly, microtitre plates or glass-bottom culture dishes (MaTek Co., USA) were coated with either 20% (v/v) or 100% (v/v) human plasma, respectively, and inoculated with S. aureus at an OD600 ∼0.2. After 1 h, non-adherent bacteria were aspirated, replaced with fresh RPMI-1640 and biofilms allowed to form over 24 h at 37 °C. Pre-formed biofilms were treated for 24 h with either 5HE-C14-TMA, C14-TOA or C14-TTA or a positive control [ethanol at 40% (v/v)]. Biofilm viability was measured by (i) resazurin-conversion assay (in microtitre wells), or (ii) live/dead imaging (glass-bottom dishes). Conversion of the non-fluorescent redox dye, resazurin into the fluorescent resorufin was performed as described previously.[16] A 44 μM resazurin (Sigma-Aldrich, UK) solution in RPMI-1640 was added to an equal biofilm volume and incubated for 1 h at 37 °C. Fluorescence (excitation 544 nm, emission 590 nm) was quantified using a Perkin Elmer 2030 Multilabel Reader Victor^TM X3. Biofilms were stained with SYTO9 Green (at 13.36 μM) and propidium iodide (at 80 μM) (Molecular Probes®) for 1 h prior to washing. Four representative images at ×40 and ×100 were obtained per experimental group, per experiment using a Zeiss LSM 510 META confocal microscope. Each experiment was repeated at least three times. Fluorescence intensity was quantified using Image J1 software (http://imagej.net/Welcome).

Data set [8] in a line: Iron chelation. In kind it is physicochemical. The following applies: data not shown.
Data set [9] relates to S. aureus USA300lux biofilm. Nature of the data set: Rat IVC (jugular vein catheter) biofilm infection model. In kind it is in vivo. To be noted: CLS 512 mg/L, 40 μL daily for 5 days. Here is the method:
Rats (male, Sprague–Dawley) were pre-implanted with jugular vein polyurethane catheters (13.5 cm long, outside diameter 1.1 mm, inside diameter 0.6 mm) (Charles River, UK). Daily flushing was performed with 150 μL sodium chloride [0.1% (w/v)] following introduction of 40 μL heparin (100 IU), sodium chloride 0.1% (w/v) within the lumen. IVC-biofilm infection was developed as previously reported.[24–26] Catheters were inoculated with 40 μL S. aureus USA300lux suspension at 1 × 10^4 cfu/mL ‘locked’ within the catheter for 1 day. Intravenous vancomycin (50 mg/kg) was administered twice daily at 12 h intervals to prevent systemic spread of infection. CLS consisting of 5HE-C14-TMA (40 μL) at 512 mg/L in sodium chloride 0.1% (w/v) was administered daily for 5 days upon development of infection. After 5 days of treatment, catheters were removed and luminescence imaged using a Perkin Elmer IVIS Spectrum instrument (exposure, 20 s; binning: 4, f1). Bacteria were harvested from the catheters by treatment with TrypLE^TM Express (Gibco) and washing prior to determining viable counts.

Results on one compound are retold here after publication PMC5400099, “5-Hydroxyethyl-3-tetradecanoyltetramic acid represents a novel treatment for intravascular catheter infections due to Staphylococcus aureus” (Journal of Antimicrobial Chemotherapy, 2016).

By CC50 is commonly meant the concentration that lowers cell viability or growth by half. A higher CC50 goes with better tolerance by the cells. By MIC is commonly meant the lowest concentration that inhibits growth of the organism. As usually defined, the Kd is the free concentration of one partner at which half of the binding sites on the other are occupied at equilibrium, for simple one-to-one binding. For orientation: IC50 means the midpoint of a concentration-inhibition curve.

Values after ≈ are worked out from the molar mass of the structure shown. Values joined by “and” are separate entries in the source; they are usually repeats but may differ in a detail not shown here. Equal values may be shown once. “Also recorded” adds a separate entry of the source.

In the case of `CCCCCCCCCCCCCC(=O)C1=C(O)N[C@@H](CCO)C1=O` [5HE-C14-TMA, 5-hydroxyethyl-3-tetradecanoyltetramic acid], the CC50 at 24 h in data set [1] is 19 µM and 7 µg/mL. The “Selectivity index (SI, CC50/MIC)” value in [2] stood at 3.5. For the same compound, the MIC in [3] is 6.25 µM and 2 µg/mL; in [6] (towards S. aureus), 12.5 µM (≈ 4.42 µg/mL). In addition, the Kd in data set [4] is 4 µM. Also, the 50% inhibitory concentration (IC50) in data set [5] is 14 µM. In addition, the “Increase in growth inhibitory activity relative to 5HE-C10-TMA” value in [6] (planktonic S. aureus) is on record as 8 fold. In addition, the “Reduction of biofilm viability” value in [7] (1024 mg/L, 24 h treatment, depending on the strain, resazurin) was 7–20 fold. In data set [7] (MRSA and MSSA biofilms), the “Concentration giving complete killing / eradication of S. aureus biofilms” value was 512 to 1024 mg/L. Moreover, the Iron chelation result in data set [8] is recorded as “is an iron chelator”. For the same compound, the “Catheter biofilm after CLS treatment” value in [9] is on record as “effectively eradicated; also recorded: highly effective in the eradication of MRSA biofilm”.
